Experimental data reported in EP0652217A1, “N-substituted imidazole derivatives” (MITSUBISHI CHEMICAL CORPORATION, priority 1993, dated 1995).

Tests used:
Assay type in all cases: in vivo
golden syrian hamsters = assay: Anti-hyperlipemic activity: inhibition of serum total cholesterol increase in cholesterol-fed hamsters; conditions: hamsters on feed with 1 % cholesterol and 0.5 % cholic acid
Experimental: Six-week old golden syrian hamsters (4 to 5 animals/group) were used.
Untreated control group received normal solid feed (MF, Oriental Kobo Kogyo), while control and a drug-treated groups received feed containing 1 % cholesterol and 0.5 % cholic acid (manufactured by Oriental Kobo Kogyo) to induce […].
The test compound was suspended in 1.0 % Tween 80. The solvent or the test compound was started to be orally administered (10 ml/kg, once a day, for 5 days) as soon as feed was changed to cholesterol-containing feed. Alter final administration, blood was drawn from abdominal descendens main vein while anesthetized with nembutal. Serum was collected and total cholesterol (TC) in serum was determined according to enzymatic method using assay kit (Kyowa Medics).

KK-A^v mice = assay: Activity to lower blood sugar (hypoglycaemic activity) in KK-A^v mice; conditions: serum
Experimental: Ten-week old KK-A^v mice (4 - 6 animals/group) were used.
The solvent (1 % Tween 80 solution) or a suspension of the test compound was orally administered once a day for 11 days (10 ml/kg).
Before administration and after the final administration, blood was drawn from caudal vein, and serum was collected and blood sugar level in serum was determined.
There was no difference between blood sugar levels before and after administration for control group. The test compound provided statistically significant decrease in blood sugar level for KK-A^v mice compared with the value before administration. The change in weight of test compound-treated group during oral administration was almost same as that of the control group.

[1] = system: Spontaneously hypertensive rats (SHR); assay: Antihypertensive activity: blood pressure lowering in SHR; conditions: oral, suspended in 1.0 % Tween 80
Experimental: Spontaneously hypertensive rats (SHR) were anesthetized with ether and polyethylene catheter for measurement of blood pressure was inserted in ventral aortas via caudal artery on the day before these experiments, and placed in separate cages and their tails were fixed. Under aparalytic conditions, blood pressure of semi-restrained rats was measured using a pressure transducer (TP-400T, manufactured by Nippon Koden). Heart rate was determined from pulse wave measured by a cardiotachometer (AT0691G, manufactured by Nippon Koden). On the test day, the test compounds were administered to rats after blood pressure and heart rate were confirmed to become sufficiently stable.
The test compounds were suspended in Tween 80 (1.0 % solution, 10 ml/kg) and orally administered to SHRs.

[2] = oral 30 mg/kg once a day for 5 days
[3] = oral 100 mg/kg once a day for 5 days

Compound	Inhibition of TC increase (golden syrian hamsters; [2]) [%]	Inhibition of TC increase (golden syrian hamsters; [3]) [%]	Maximum fall in blood pressure ([1]; dose 10 mg/kg) [mmHg]	also measured
c1cc(OCCCn2ccnc2)c2c(c1)OCO2 [Compound 1, 4-[3-(1-imidazolyl)propoxy]-1,3-benzodioxole]	80	100	–	Blood sugar level, After administration (KK-A^v mice; after oral 30 mg/kg once a day for 11 days, P < 0.05 vs value before administration): 532.2 ± 23.9; Blood sugar level, Before administration (KK-A^v mice; baseline before administration, 30 mg/kg group): 676.4 ± 33.7
N#Cc1ncn(CCCOc2cccc3c2OCO3)c1C#N [Compound 4, 4-[3-(4,5-dicyano-1-imidazolyl)propoxy]-1,3-benzodioxole]	–	–	-20	–
Clc1ncn(CCCOc2cccc3c2OCO3)c1Cl [Compound 5, 4-[3-(4,5-dichloro-1-imidazolyl)propoxy]-1,3-benzodioxole]	–	–	-20	–
c1cc(OCCCn2cnc3ccccc32)c2c(c1)OCO2 [Compound 6, 4-[3-(1-benzimidazolyl)propoxy]-1,3-benzodioxole]	–	–	-20	–
c1cc(OCCCCn2ccnc2)c2c(c1)OCO2 [Compound 7, 4-[4-(1-imidazolyl)butoxy]-1,3-benzodioxole]	38	–	-60	–
c1cc(OCCCCCn2ccnc2)c2c(c1)OCO2 [Compound 8, 4-[5-(1-imidazolyl)pentoxy]-1,3-benzodioxole]	–	–	-25	–
O=C(NCCCn1ccnc1)c1ccc2c(c1)OCO2 [Compound 13, N-[3-(1-imidazolyl)propyl]-3,4-methylenedioxybenzamide]	26	60	–	–
O=C(NCCCn1ccnc1)c1ccc2c(c1)OCCO2 [Compound 16, N-[3-(1-imidazolyl)propyl]-1,4-benzodioxane-6-carboxamide]	–	79	–	Maximum fall in blood pressure ([1]; dose 30 mg/kg): -34.3 mmHg
